Results from US5462935A, “Cephalosporin compounds” (Lucky Limited, priority 1990, dated 1995).
In brackets after ≈: the same amount, converted by molar mass. Like-named read-outs stand apart in the source and are kept apart here.

What was measured:
[1] = test system: ATCC 12228; test: minimal inhibitory concentration, two-fold agar dilution; type: cell-based; settings: Staphylococcus faecalis, ATCC12228, 20 h
Experimental: (§1) These NIC values were taken by employing a two-fold dilution method: that is, two-fold serial dilutions of each of the test compounds were made and dispersed in a Muller-Hinton agar medium; 2 μl of the standard test strain which had the 10^7 CFU (Colony Forming Unit) per ml was inoculated on the medium; and these were incubated at 37° C. for 20 hours.

[2] = test system: Acinetobacter calcoaceticus ATCC 15473; test: as above; type: cell-based; settings: ATCC15473, Muller-Hinton agar, 37° C., 20 hours
Experimental: as §1

[3] = test system: Bacillus cereus ATCC 11778; test: as above; type: cell-based; settings: Bacillus cereus, ATCC11778, 20 h
Experimental: as §1

[4] = test system: Bacillus megaterium ATCC 9885; test: as above; type: cell-based; settings: Priestia megaterium, ATCC9885, 20 h
Experimental: as §1

[5] = test system: Citrobacter freundii ATCC 8090; test: as above; type: cell-based; settings: ATCC8090, Muller-Hinton agar, 37° C., 20 hours
Experimental: as §1

[6] = test system: Enterobacter aerogenes ATCC 29751; test: as above; type: cell-based; settings: Klebsiella aerogenes, ATCC29751, 20 h
Experimental: as §1

[7] = test system: Enterobacter cloacae ATCC 27508; test: as above; type: cell-based; settings: ATCC27508, Muller-Hinton agar, 37° C., 20 hours
Experimental: as §1

[8] = test system: Escherichia coli ATCC 10536; test: as above; type: cell-based; settings: ATCC10536, Muller-Hinton agar, 37° C., 20 hours
Experimental: as §1

[9] = test system: Escherichia coli ATCC 25922; test: as above; type: cell-based; settings: ATCC25922, Muller-Hinton agar, 37° C., 20 hours
Experimental: as §1

[10] = test system: Klebsiella pneumoniae ATCC 10031; test: as above; type: cell-based; settings: ATCC10031, Muller-Hinton agar, 37° C., 20 hours
Experimental: as §1

[11] = test system: Micrococcus luteus ATCC 9341; test: as above; type: cell-based; settings: ATCC9341, Muller-Hinton agar, 37° C., 20 hours
Experimental: as §1

[12] = test system: Morganella morganii ATCC 8076h; test: as above; type: cell-based; settings: ATCC8076H, 20 h
Experimental: as §1

[13] = test system: Proteus mirabilis ATCC 25933; test: as above; type: cell-based; settings: ATCC25933, Muller-Hinton agar, 37° C., 20 hours
Experimental: as §1

[14] = test system: Proteus vulgaris ATCC 6059; test: as above; type: cell-based; settings: ATCC6059, Muller-Hinton agar, 37° C., 20 hours
Experimental: as §1

[15] = test system: Providencia rettgeri ATCC 9250; test: as above; type: cell-based; settings: ATCC9250, Muller-Hinton agar, 37° C., 20 hours
Experimental: as §1

[16] = test system: Pseudomonas aeruginosa ATCC 25619; test: as above; type: cell-based; settings: ATCC25619, Muller-Hinton agar, 37° C., 20 hours
Experimental: as §1

[17] = test system: Pseudomonas aerugionsa ATCC 10145; test: as above; type: cell-based; settings: ATCC10145, Muller-Hinton agar, 37° C., 20 hours
Experimental: as §1

[18] = test system: Pseudomonas aerugionsa ATCC 27853; test: as above; type: cell-based; settings: ATCC27853, Muller-Hinton agar, 37° C., 20 hours
Experimental: as §1

[19] = test system: Salmonella typhimurium ATCC 14028; test: as above; type: cell-based; settings: Salmonella enterica, Muller-Hinton agar, 37° C., 20 hours
Experimental: as §1

[20] = test system: Serratia marcescens ATCC 27117; test: as above; type: cell-based; settings: ATCC27117, Muller-Hinton agar, 37° C., 20 hours
Experimental: as §1

[21] = test system: Shigella flexneri ATCC 11836; test: as above; type: cell-based; settings: ATCC11836, Muller-Hinton agar, 37° C., 20 hours
Experimental: as §1

[22] = test system: Shigella sonnei ATCC 11060; test: as above; type: cell-based; settings: ATCC11060, Muller-Hinton agar, 37° C., 20 hours
Experimental: as §1

[23] = test system: Staphylococcus aureus ATCC 6638p; test: as above; type: cell-based; settings: ATCC6638P, 20 h
Experimental: as §1

[24] = test system: Staphylococcus epidermidis ATCC 10537; test: as above; type: cell-based; settings: ATCC10537, Muller-Hinton agar, 37° C., 20 hours
Experimental: as §1

[25] = test system: Streptococcus faecalis ATCC 29212; test: as above; type: cell-based; settings: Enterococcus faecalis, ATCC29212, Muller-Hinton agar, 37° C., 20 hours
Experimental: as §1

[26] = acute toxicity test, intravenous; settings: mouse, in vivo, ICR mice, observed for 14 days
Excerpt: The results are shown in the last row of Table 2.

[27] = in vivo absorbency test (plasma concentration, pharmacokinetic parameters); parameters: species or system SD rats (male); settings: rat, iv, 20 mg/kg, rats; for half-life / concentration at 1 min / concentration at 2.5 min / concentration at 5 min / concentration at 10 min / concentration at 20 min / concentration at 40 min / concentration at 1 h / concentration at 2 h / concentration at 3 h / AUC: plasma; for half-life / AUC: Two-Compartment Model; for concentration at 1 min / concentration at 2.5 min / concentration at 5 min / concentration at 10 min / concentration at 20 min / concentration at 40 min / concentration at 1 h / concentration at 2 h / concentration at 3 h: read-out: Plasma Conc.; for concentration at 1 h: 60 min; for concentration at 2 h: 120 min; for concentration at 3 h: 180 min; for AUC: read-out: ACU (converted); for dose excreted: urine, read-out: Urinary recovery
Experimental: In addition to the in vitro tests described above, in vivo absorbency tests for the two selected compounds of formulas (I-S-1) and (I-R-1), along with Ceftadizime, were carried out by administering intravenously, in a dose of 20 mg/kg, each of these two compounds into SD rats (male) weighing 220 to 340 g; […], which were analyzed by employing the bio-assay or agar well method. About 10 to 15 rats were used for each of the compounds.
Notes: (1) Two-Compartment Model
(3) Tested Animal: Rats(male; 220-340 g)

| SMILES | MIC [1] | MIC [2] | MIC [3] | MIC [4] | MIC [5] | MIC [6] | MIC [7] | MIC [8] | MIC [9] | MIC [10] | MIC [11] | MIC [12] | MIC [13] | MIC [14] | MIC [15] | MIC [16] | MIC [17] | MIC [18] | MIC [19] | MIC [20] | also measured |
| --- | --- | --- | --- | --- | --- | --- | --- | --- | --- | --- | --- | --- | --- | --- | --- | --- | --- | --- | --- | --- | --- |
| C[C@H](O/N=C(\C(=O)NC1C(=O)N2C(C(=O)[O-])=C(CSc3nc(N)cc(N)[n+]3N)CS[C@H]12)c1csc(N)n1)C(=O)O (stereo partly drawn) [I-S-1, 7-[(Z)-2-(2-aminothiazol-4-yl)-2-[(S)-1-carboxyeth-1-oxyimino]acetamido]-3-[(1,4,6-triaminopyrimidinium-2-yl)thiomethyl]-3-cephem-4-carboxylate] | 2 mg/L (≈ 3.28 µM) | 2 mg/L (≈ 3.28 µM) | 32 mg/L (≈ 52.4 µM) | 0.13 mg/L (≈ 0.213 µM) | 0.031 mg/L (≈ 0.0508 µM) | 0.5 mg/L (≈ 0.819 µM) | 0.016 mg/L (≈ 0.0262 µM) | 0.031 mg/L (≈ 0.0508 µM) | 0.031 mg/L (≈ 0.0508 µM) | 0.031 mg/L (≈ 0.0508 µM) | 0.25 mg/L (≈ 0.409 µM) | ≤ 0.008 mg/L | 0.016 mg/L (≈ 0.0262 µM) | 0.016 mg/L (≈ 0.0262 µM) | ≤ 0.008 mg/L | 0.5 mg/L (≈ 0.819 µM) | 1 mg/L (≈ 1.64 µM) | 0.5 mg/L (≈ 0.819 µM) | 0.063 mg/L (≈ 0.103 µM) | 0.031 mg/L (≈ 0.0508 µM) | MIC [21]: 0.016 mg/L (≈ 0.0262 µM); MIC [22]: 0.031 mg/L (≈ 0.0508 µM); MIC [23]: 4 mg/L (≈ 6.55 µM); MIC [24]: 2 mg/L (≈ 3.28 µM); MIC [25]: > 128 mg/L; LD50 at 336 h [26]: > 5000 mg/kg; half-life ([27]; read-out: T1/1(β)): 37.5 min; half-life ([27]; read-out: T1/2(α)): 7.6 min; concentration at 1 min [27]: 147 µg/mL; concentration at 2.5 min [27]: 102 µg/mL; concentration at 5 min [27]: 72.6 µg/mL; concentration at 10 min [27]: 57.3 µg/mL; concentration at 20 min [27]: 37 µg/mL; concentration at 40 min [27]: 19.6 µg/mL; concentration at 1 h [27]: 11.2 µg/mL; concentration at 2 h [27]: 3.1 µg/mL; concentration at 3 h [27]: 1.5 µg/mL; AUC [27]: 47.7 µg·h/mL; dose excreted [27]: 93% |
| C[C@@H](O/N=C(\C(=O)NC1C(=O)N2C(C(=O)[O-])=C(CSc3nc(N)cc(N)[n+]3N)CS[C@H]12)c1csc(N)n1)C(=O)O (stereo partly drawn) [I-R-1, 7-[(Z)-2-(2-aminothiazol-4-yl)-2-[(R)-1-carboxyeth-1-oxyimino]acetamido]-3-[(1,4,6-triaminopyrimidinium-2-yl)thiomethyl]-3-cephem-4-carboxylate] | 2 mg/L (≈ 3.28 µM) | 2 mg/L (≈ 3.28 µM) | 128 mg/L (≈ 210 µM) | 0.5 mg/L (≈ 0.819 µM) | 0.031 mg/L (≈ 0.0508 µM) | 0.5 mg/L (≈ 0.819 µM) | 0.016 mg/L (≈ 0.0262 µM) | 0.031 mg/L (≈ 0.0508 µM) | 0.031 mg/L (≈ 0.0508 µM) | 0.031 mg/L (≈ 0.0508 µM) | 1 mg/L (≈ 1.64 µM) | ≤ 0.008 mg/L | 0.031 mg/L (≈ 0.0508 µM) | 0.031 mg/L (≈ 0.0508 µM) | ≤ 0.008 mg/L | 0.5 mg/L (≈ 0.819 µM) | 2 mg/L (≈ 3.28 µM) | 1 mg/L (≈ 1.64 µM) | 0.063 mg/L (≈ 0.103 µM) | 0.031 mg/L (≈ 0.0508 µM) | MIC [21]: ≤ 0.008 mg/L; MIC [22]: 0.016 mg/L (≈ 0.0262 µM); MIC [23]: 8 mg/L (≈ 13.1 µM); MIC [24]: 4 mg/L (≈ 6.55 µM); MIC [25]: > 128 mg/L; LD50 at 336 h [26]: > 5000 mg/kg; half-life ([27]; read-out: T1/1(β)): 30 min; half-life ([27]; read-out: T1/2(α)): 4.7 min; concentration at 1 min [27]: 170 µg/mL; concentration at 2.5 min [27]: 102 µg/mL; concentration at 5 min [27]: 76.9 µg/mL; concentration at 10 min [27]: 57 µg/mL; concentration at 20 min [27]: 39.1 µg/mL; concentration at 40 min [27]: 17.7 µg/mL; concentration at 1 h [27]: 10.1 µg/mL; concentration at 2 h [27]: 2.5 µg/mL; concentration at 3 h [27]: 0.7 µg/mL; AUC [27]: 45.8 µg·h/mL; dose excreted [27]: 91% |
